Activity and inhibition data for one molecule are collected here from ChEMBL document CHEMBL5505985 (Eur J Med Chem, 2024).

Test [1] relates to RAW264.7. The test is described as follows: Antiinflammatory activity in LPS-induced mouse RAW264.7 cells assessed as inhibition of NO secretion preincubated for 1 hr followed by LPS stimulation and measured after 24 hrs by Griess assay. Format: functional, cell-based. The note with it: dose 2-30 µM, time 25.0 hrs. (Nitrite, measured by Griess reagent, commonly stands in for NO production.)

Test [2] concerns RAW264.7. The test is described as follows: Antiinflammatory activity in LPS-induced mouse RAW264.7 cells assessed as inhibition of ROS secretion preincubated for 1 hr followed by LPS stimulation and measured after 24 hrs by fluorescence based analysis. Format: functional, cell-based. The note with it: dose 2-30 µM, time 25.0 hrs.
Test [3] has as its system RAW264.7. In words: Antiinflammatory activity in LPS-induced mouse RAW264.7 cells assessed as downregulation of IL-6 secretion preincubated for 1 hr followed by LPS stimulation and measured after 24 hrs by ELISA method. The conditions noted are these: dose 2-30 µM, time 25.0 hrs. The format is functional, cell-based. (In general: An ELISA detects its analyte on a solid surface through an enzyme-linked reagent.)

Test [4] has as its system RAW264.7. In words: Inhibition of MAPK signalling pathway in LPS induced mouse RAW264.7 cells assessed as effect on JNK phosphorylation level at 10 to 30 uM preincubated for 1 hr followed by LPS stimulation and measured after 30 mins by Westernblot analysis. Format: cell-based. The note with it: dose 10-30 µM, time 1.5 hrs.
For test [5], the target named is NACHT, LRR and PYD domains-containing protein 3 (Mus musculus) (UniProt Q8R4B8). The test is described as follows: Inhibition of NLRP3 inflammasome in LPS-induced mouse RAW264.7 cells assessed as downregulation of caspase-1 activation primed with LPS for 4.5 hs followed by incubation with compound for 1 hr and later stimulation with ATP for 30 mins by Western blot analysis. The note with it: dose 10-30 µM, time 1.5 hrs. Format: cell-based.
Chain of NACHT, LRR and PYD domains-containing protein 3 (Mus musculus) (Q8R4B8 whole entry, the tested form may be a part): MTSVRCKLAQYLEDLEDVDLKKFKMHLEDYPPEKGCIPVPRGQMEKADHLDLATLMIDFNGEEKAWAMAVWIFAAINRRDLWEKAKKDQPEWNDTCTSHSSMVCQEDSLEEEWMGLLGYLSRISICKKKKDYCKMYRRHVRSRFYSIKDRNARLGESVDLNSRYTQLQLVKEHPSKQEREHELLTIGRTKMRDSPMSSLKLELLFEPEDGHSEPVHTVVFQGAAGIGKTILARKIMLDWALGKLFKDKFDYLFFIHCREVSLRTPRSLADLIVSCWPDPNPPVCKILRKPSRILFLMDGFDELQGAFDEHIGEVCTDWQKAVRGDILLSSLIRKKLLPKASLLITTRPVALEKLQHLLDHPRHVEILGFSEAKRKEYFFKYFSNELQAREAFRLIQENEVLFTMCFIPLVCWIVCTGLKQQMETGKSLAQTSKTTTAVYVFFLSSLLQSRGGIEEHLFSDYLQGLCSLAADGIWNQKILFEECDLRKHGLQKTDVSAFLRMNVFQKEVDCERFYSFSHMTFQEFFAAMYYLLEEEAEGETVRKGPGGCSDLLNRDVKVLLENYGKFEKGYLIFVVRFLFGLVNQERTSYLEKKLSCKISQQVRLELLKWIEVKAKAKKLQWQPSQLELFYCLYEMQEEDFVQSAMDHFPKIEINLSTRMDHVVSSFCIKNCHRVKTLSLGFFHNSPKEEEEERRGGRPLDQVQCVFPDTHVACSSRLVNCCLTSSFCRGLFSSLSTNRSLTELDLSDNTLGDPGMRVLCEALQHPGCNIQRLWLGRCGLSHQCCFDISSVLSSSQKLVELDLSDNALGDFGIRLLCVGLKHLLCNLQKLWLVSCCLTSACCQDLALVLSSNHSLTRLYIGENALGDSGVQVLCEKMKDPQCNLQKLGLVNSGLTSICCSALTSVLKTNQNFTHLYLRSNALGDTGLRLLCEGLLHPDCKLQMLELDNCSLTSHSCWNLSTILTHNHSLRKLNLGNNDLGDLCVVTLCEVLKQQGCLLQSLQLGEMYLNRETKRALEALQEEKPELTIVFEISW

Test [6] relates to Mus musculus. In words: Antiinflammatory activity against DSS-induced ulcerative colitis BALB/c mouse assessed as suppression of weight loss at 0.25 mg/kg, po for 5 days and measured on day 10. The format is functional, organism-based. The conditions noted are these: time 10.0 day.
Test [7] relates to Mus musculus. In words: Antiinflammatory activity against DSS-induced ulcerative colitis BALB/c mouse assessed as attenuation of colonic length reduction at 0.25 mg/kg, po for 5 days and measured after 12 days. The format is functional, organism-based. The conditions noted are these: time 12.0 day.
Test [8] has as its system Mus musculus. The test is described as follows: Antiinflammatory activity against DSS-induced ulcerative colitis BALB/c mouse assessed as amelioration of leucocyte infiltration at 0.25 mg/kg, po for 5 days and measured after 12 days. The format is functional, organism-based. The note with it: time 12.0 day.
Test [9] deals with Mus musculus. In words: Antiinflammatory activity against DSS-induced ulcerative colitis BALB/c mouse assessed as amelioration of inflammatory cell infiltration at 0.25 mg/kg, po for 5 days and measured after 12 days. The conditions noted are these: time 12.0 day. The format is functional, organism-based.
Test [10] deals with Mus musculus. In words: Antiinflammatory activity against DSS-induced ulcerative colitis BALB/c mouse assessed as amelioration of goblet cell depletion at 0.25 mg/kg, po for 5 days and measured after 12 days. The format is functional, organism-based. The conditions noted are these: time 12.0 day.
For test [11], the system named is Mus musculus. In words: Protection against DSS-induced ulcerative colitis BALB/c mouse assessed as recovery of blood sinusoids at 0.25 mg/kg, po for 5 days and measured after 12 days by H and E staining based analysis. Format: functional, organism-based. The conditions noted are these: time 12.0 day.

Structures are written as SMILES. The source made the active and inactive calls. No cut-off for these calls is given here.

For the molecule `COc1ccccc1C1=Nn2c(Cc3ccccc3Nc3c(Cl)cccc3Cl)nnc2SC1`, the Activity result with RAW264.7 [1], in the test with RAW264.7 [2] and in the test on RAW264.7 [3] was “Dose-Dependent Effect” in each case. Moreover, in the test on RAW264.7 [4], the inhibition result is “inactive”. Also, the inhibition entry in test [5] is “Dose-Dependent Effect”. Moreover, the result with Mus musculus [6], in the test with Mus musculus [7], in the test with Mus musculus [8], with Mus musculus [9], in the test with Mus musculus [10] and with Mus musculus [11] was Active.
